Columns and labels:
[1] = Plasma concentration in mouse at 0.3 mg/kg, po after 30 mins; assay type: ADME, organism-based
[2] = Drug uptake in mouse brain at 0.3 mg/kg, po after 30 mins; assay type: ADME, organism-based; conditions: read-out: Drug uptake

c1ccc(-c2cc(NC3=NC[C@@]4(CN5CCC4CC5)O3)ncn2)cc1
concentration at 0.5 h [1]: 273 nM | concentration at 0.5 h [2]: 81 nM
